Measured values taken from PMC8571282 (Nature Communications, 2021).
Values joined by “and” are separate entries in the source; they are usually repeats but may differ in a detail not shown here. Identical values can stand only once. Like-named read-outs stand apart in the source and are kept apart here.

Columns and labels:
[1] = Cytotoxicity assay (PrestoBlue), “M2” HAE; settings: human, % cell viability, M2 HAE, 72 h
[2] = cited from earlier work
[3] = tested on: SARS-CoV-2 (WA1/2020 and VOC α, β, γ); assay: microbe, parasite or virus in culture; assay type: cell-based; settings: Severe acute respiratory syndrome coronavirus 2, Vero C1008; read-out: Half-maximal effective concentrations (EC50), range
[4] = parameters: method as in Mackman et al 2021 (JMC 2021, 64(8), 5001-5017); settings: rats, ref Mackman et al 2021 (JMC 2021, 64(8), 5001-5017); cited from earlier work
in vitro [5] = settings: human
[6] = tested on: SARS-CoV-2 WA1/2020 (lineage A); assay: microbe, parasite or virus in culture; assay type: cell-based; settings: for Virus yield reduction: vehicle = 0
[7] = tested on: SARS-CoV-2 gamma isolate (BZ/2021, lineage P.1); assay: microbe, parasite or virus in culture; assay type: cell-based; settings: Severe acute respiratory syndrome coronavirus 2
VeroE6 cells = assay: Cytotoxicity assay (PrestoBlue), VeroE6; settings: 72 h
[8] = Cytotoxicity assay (PrestoBlue), VeroE6; settings: African green monkey, VeroE6 cells
[9] = tested on: SARS-CoV-2 CA/2020 (α, lineage B.1.1.7); assay: microbe, parasite or virus in culture; assay type: cell-based
in vitro [10] = settings: human, % cell viability, HEp-2, 33.333 µM, 72 h
[11] = tested on: well-differentiated primary human airway epithelium cultures; assay type: cell-based
[12] = tested on: SARS-CoV-2 BZ/2021 (γ, lineage P.1); assay: microbe, parasite or virus in culture; assay type: cell-based; settings: Severe acute respiratory syndrome coronavirus 2, Vero C1008; BZ/2021, VeroE6, mean n=3
[13] = tested on: SARS-CoV-2-Nluc (WA1/2020-nano luciferase); assay: microbe, parasite or virus in culture; assay type: cell-based; settings: for A549-hACE2 SARS-CoV-2 Nluc (EC50 determination), normalized signal: replicate values of the experiments
[14] = Single-dose plasma pharmacokinetics in ferrets; settings: ferret; for plasma concentration of GS-621763: GS-621763 PO 30 mg/kg, 30 mg/kg
[15] = Cytotoxicity assay (PrestoBlue), BHK-21; settings: hamster, BHK-21 cells
[16] = Cytotoxicity assay (PrestoBlue), “M6” HAE; settings: human
“M6” primary HAE cells = assay: Cytotoxicity assay (PrestoBlue), “M6” HAE; settings: M6 HAE, 72 h
“F3” primary HAE cells = assay: Cytotoxicity assay (PrestoBlue), “F3” HAE; settings: 72 h; for % cell viability: F3 HAE
[17] = Cytotoxicity assay (PrestoBlue), “F3” HAE; settings: human
[18] = tested on: SARS-CoV-2 SA/2020 (β, lineage B.1.351); assay: microbe, parasite or virus in culture; assay type: cell-based; settings: Severe acute respiratory syndrome coronavirus 2, Vero C1008; SA/2020, VeroE6, mean n=3
in vitro [19] = settings: human, % cell viability, 72 h
[20] = Cytotoxicity assay (PrestoBlue), HCT-8; settings: human, HCT-8 cells
in vitro [21] = settings: human; remark: listed apart in the source
[22] = Cytotoxicity assay (PrestoBlue), HEp-2; settings: human, HEp-2 cells

CC(C)C(=O)OCC1OC(C#N)(c2ccc3c(N)ncnn23)C(OC(=O)C(C)C)C1OC(=O)C(C)C (centres unmarked) [GS-621763]
viability at 72 h, 100 µM ([1]; 100 µM): 0% | viability at 72 h, 1.235 µM ([1]; male, 1.235 µM): 107% | viability at 72 h, 3.704 µM ([1]; male, 3.704 µM): 117% | viability at 72 h, 33.333 µM ([1]; male, 33.333 µM): 89% | increase of oral F compared to GS-441524 ([2]; rats and cynomolgus macaques, ref Mackman et al 2021): greater than 5 fold | oral bioavailability (in words) ([2]; two relevant animal species including non-human primates): high oral bioavailability | EC50 [3]: 0.11 to 0.73 µM | oral F [4]: 57% | CC50 at 48 h (in vitro [5]): > 47 µM | EC50 ([6]; Severe acute respiratory syndrome coronavirus 2, Vero C1008, WA1/2020, VeroE6, mean n=3): 0.73 µM | Virus yield reduction ([6]; WA1/2020, VeroE6, 0.617284 µM): -0.1154 | Virus yield reduction ([6]; WA1/2020, VeroE6, 1.85185 µM): -1.903 | EC50 [7]: 3.01 µM | % cell viability (VeroE6 cells; VeroE6, 0.046 µM, 0.046 µM): 61% and 56% | % cell viability (VeroE6 cells; VeroE6, 1.235 µM, 1.235 µM): 82% | % cell viability (VeroE6 cells; VeroE6, 3.704 µM, 3.704 µM): 97% | % cell viability (VeroE6 cells; VeroE6, 33.333 µM, 33.333 µM): 103% | % cell viability (VeroE6 cells; VeroE6, 100 µM, 100 µM): -4% and -6% and -7% | CC50 at 72 h [8]: > 100 µM | viability at 72 h, 0.046 µM ([8]; % cell viability, VeroE6, 0.046 µM, 72 h): 62% | viability at 72 h, 1.235 µM ([8]; % cell viability, VeroE6, 1.235 µM, 72 h): 90% | viability at 72 h, 3.704 µM ([8]; % cell viability, VeroE6, 3.704 µM, 72 h): 95% | viability at 72 h, 33.333 µM ([8]; % cell viability, VeroE6, 33.333 µM, 72 h): 105% | reduction in titer in vitro (to the limit of detection) [9]: ~ 1 log | EC50 ([9]; Severe acute respiratory syndrome coronavirus 2, Vero C1008, CA/2020, VeroE6, mean n=3): 0.21 µM | viability at 72 h, 33.333 µM (in vitro [10]): 112% | basolateral drug concentration at which epithelium integrity (TEER) was fully preserved [11]: ≥ 3 µM | EC50 [12]: 0.22 µM | A549-hACE2 SARS-CoV-2 Nluc (EC50 determination), normalized signal ([13]; Conc 0.023 µM): 100.31 and 91.27 and 105.35 and 111.17 and 106.25 and 121.34 and 128.97 and 56.85 | A549-hACE2 SARS-CoV-2 Nluc (EC50 determination), normalized signal ([13]; Conc 0.069 µM): 81.07 and 111.32 and 107.14 and 109.98 and 64.03 and 99.75 and 127.29 and 97.36 | A549-hACE2 SARS-CoV-2 Nluc (EC50 determination), normalized signal ([13]; Conc 0.206 µM): 99.03 and 101.58 and 96.21 and 106.69 and 74.78 and 94.61 and 130.86 and 135.24 | A549-hACE2 SARS-CoV-2 Nluc (EC50 determination), normalized signal ([13]; Conc 0.617 µM): 93.09 and 77.54 and 84.50 and 82.94 and 7.92 and 26.38 and 11.95 and 19.80 | A549-hACE2 SARS-CoV-2 Nluc (EC50 determination), normalized signal ([13]; Conc 1.852 µM): 11.60 and 8.15 and 9.31 and 12.89 and 0.89 and 0.94 and 1.04 and 0.76 | A549-hACE2 SARS-CoV-2 Nluc (EC50 determination), normalized signal ([13]; Conc 5.556 µM): 0.61 and 1.05 and 0.64 and 0.93 and 0.44 (2×) and 0.49 and 0.36 | A549-hACE2 SARS-CoV-2 Nluc (EC50 determination), normalized signal ([13]; Conc 16.667 µM): 0.46 and 0.65 and 0.58 and 0.40 and 0.32 (2×) and 0.31 and 0.28 | A549-hACE2 SARS-CoV-2 Nluc (EC50 determination), normalized signal ([13]; Conc 50.000 µM): 0.15 (3×) and 0.14 and 0.29 (2×) and 0.24 and 0.26 | EC50 ([13]; Severe acute respiratory syndrome coronavirus 2, WA1/2020-nano luciferase, A549-ACE2, mean ± SD): 0.72 µM | oral bioavailability (in words) [14]: excellent oral bioavailability | plasma concentration of GS-621763 ([14]; 0.25 h): 9.27 and 11.5 and 13.7 | plasma concentration of GS-621763 ([14]; 1 h): 5.98 and 3.18 and 4.36 | plasma GS-621763 (intact prodrug) transiently observed ([14]; GS-621763 p.o. 30 mg/kg, first two hours): approximately 10 nM | GS-441524 in blood relative to intact prodrug ([14]; after oral administration of GS-621763): more than three orders of magnitude higher | CC50 at 72 h [15]: > 100 µM | viability at 72 h, 0.046 µM ([15]; % cell viability, BHK-21, 0.046 µM, 72 h): 76% | viability at 72 h, 1.235 µM ([15]; % cell viability, BHK-21, 1.235 µM, 72 h): 90% | viability at 72 h, 3.704 µM ([15]; % cell viability, BHK-21, 3.704 µM, 72 h): 90% | viability at 72 h, 33.333 µM ([15]; % cell viability, BHK-21, 33.333 µM, 72 h): 91% | viability at 72 h, 100 µM ([15]; % cell viability, BHK-21, 100 µM, 72 h): 85% | CC50 at 72 h [16]: 92.3 µM | viability at 72 h, 100 µM ([16]; % cell viability, M6 HAE, 100 µM, 72 h): 42% | viability at 72 h, 1.235 µM ([16]; male, % cell viability, M6 HAE, 1.235 µM, 72 h): 97% | viability at 72 h, 33.333 µM ([16]; male, % cell viability, M6 HAE, 33.333 µM, 72 h): 94% | % cell viability (“M6” primary HAE cells; 1.235 µM): 96% | % cell viability (“M6” primary HAE cells; 3.704 µM): 70% and 86% | % cell viability (“M6” primary HAE cells; 33.333 µM): 99% | % cell viability (“M6” primary HAE cells; 100 µM): 46% and 45% | % cell viability (“F3” primary HAE cells; 0.046 µM): 79% | % cell viability (“F3” primary HAE cells; 3.704 µM): 115% | % cell viability (“F3” primary HAE cells; 33.333 µM): 86% | CC50 (“F3” primary HAE cells; “F3” HAE): 43.8 µM | viability at 72 h, 1.235 µM ([17]; female, % cell viability, F3 HAE, 1.235 µM): 121% | viability at 72 h, 3.704 µM ([17]; female, % cell viability, F3 HAE, 3.704 µM): 111% | viability at 72 h, 33.333 µM ([17]; female, % cell viability, F3 HAE, 33.333 µM): 81% | viability at 72 h, 0.046 µM ([17]; female, “F3” primary human airway epithelial (HAE) cells, % cell viability, F3 HAE, 0.046 µM): 83% | viability at 72 h, 100 µM ([17]; % cell viability, F3 HAE, 100 µM): 1% | CC50 at 72 h ([17]; CC50, “F3” HAE): 43.8 µM | EC50 [18]: 0.11 µM | viability at 72 h, 1.235 µM (in vitro [19]; HCT-8, 1.235 µM): 115% | viability at 72 h, 3.704 µM (in vitro [19]; HCT-8, 3.704 µM): 114% | viability at 72 h, 33.333 µM (in vitro [19]; HCT-8, 33.333 µM): 106% | viability at 72 h, 0.046 µM ([20]; % cell viability, HCT-8, 0.046 µM, 72 h): 78% | viability at 72 h, 3.704 µM ([20]; % cell viability, HCT-8, 3.704 µM, 72 h): 104% | viability at 72 h, 33.333 µM ([20]; % cell viability, HCT-8, 33.333 µM, 72 h): 99% | viability at 72 h, 100 µM ([20]; % cell viability, HCT-8, 100 µM, 72 h): 2% | CC50 at 72 h ([20]; CC50, HCT-8, 72 h): 74.6 µM | viability at 72 h, 0.046 µM (in vitro [21]; female, % cell viability): 84% | viability at 72 h, 3.704 µM (in vitro [21]; female, % cell viability): 120% | viability at 72 h, […] (in vitro [21]; female, % cell viability): 95% | viability at […] (in vitro [21]; female, % cell viability): 101% | viability at 1.235 µM (in vitro [21]; female, % cell viability, DF2 HAE, 1.235 µM, 72 h): 103% | viability at 3.704 µM (in vitro [21]; female, % cell viability, DF2 HAE, 3.704 µM, 72 h): 116% | viability at 33.333 µM (in vitro [21]; female, % cell viability, DF2 HAE, 33.333 µM, 72 h): 112% | CC50 at 72 h (in vitro [21]): 86 µM | viability at 72 h, 100 µM (in vitro [21]; % cell viability): 4% | viability at 72 h, 0.046 µM ([22]; % cell viability, HEp-2, 0.046 µM, 72 h): 53% | viability at 72 h, 1.235 µM ([22]; % cell viability, HEp-2, 1.235 µM, 72 h): 95% | viability at 72 h, 3.704 µM ([22]; % cell viability, HEp-2, 3.704 µM, 72 h): 104% | viability at 72 h, 33.333 µM ([22]; % cell viability, HEp-2, 33.333 µM, 72 h): 111% | CC50 at 72 h ([22]; CC50, HEp-2, 72 h): 79.4 µM
